Laboratory results reported in patent US20250109127A1, “METHODS OF USE OF PHENOXYPROPYLAMINE COMPOUNDS TO TREAT DEPRESSION” (Minerva Neurosciences, Inc., priority 2013, published 2025).
Several values for one entry are separate records, joined by “and”; a condition that tells them apart may be missing. Identical values can stand only once.

Tested on: 5-HT release in the rat prefrontal cortex
Experiment: Microdialysis: 5-HT release in prefrontal cortex after I.P. administration
Type: in vivo
Details: for 5-HT in dialysate, MEAN / 5-HT in dialysate, individual animals: Citalopram 10 mg/kg I.P.
Method: The aim of the study was to evaluate, using microdialysis, the effects of an intraperitoneal (I.P.) administration in rats of three different doses of SON-117 on dopamine and its metabolites, serotonin and its metabolite (5-HIAA), and norepinephrine levels in prefrontal cortex.
Thirty-two adult male Wistar rats were used for the whole study (4 groups of eight animals planned for the study, Table 1).
Surgery was performed on rats weighing about 300 g at the beginning of the experiments. Rats were anaesthetized with Ketamine (50 mg/kg) & Xylazine (15 mg/kg) by intramuscular administration. The animals were placed in a stereotaxic apparatus in the flat-skull position at a constant setting of −3.3 mm between ear bars and the incisor bar. The animals were treated with a local anesthesic (xylocaine 1%, Astra Zeneca) and an analgesic (Temgesic, from Schering Plough, 0.05 mg/kg, s.c.). A rostrocaudal midline incision was made with a lancet to expose the dorsal skull surface. The “stereotaxic zero” was defined by the Bregma in accordance with Paxinos and Watson's atlas (1986). A hole was drilled in the skull with a drill and the meninges were pierced with a sterile needle to implant a CMA12 guide cannula which later received the dialysis probe.
Coordinates used for implanting guide cannula in prefrontal cortex from Bregma were anteroposterior 3.7 mm, mediolateral 0.8 mm, and dorsoventral −2 mm (top of the probe was at −5 mm). The guide cannula was fixed to the skull with two stainless steel screws (1.88 mm outside diameter) anchored. An application of dental cement was added. A plastic collar allowed each animal to be tethered to a Swivel assembly of the CMA 120 awake animal system. Following surgery, rats were kept in individual cages and allowed to recover for a minimum of 3-5 days before the experimentation. The rats were handled and put in plastic bowl for 10 min at least every day to habituate the animals to their new environment for the dialysis. An I.P. administration with saline was also performed every day.
Dialysis probes (CMA12/3 mm, membrane, 20 kD cut-off, Carnegie Medicine, Stockholm, Sweden), were carefully washed before inserting into the guide cannula. The wash was performed with the artificial cerebrospinal fluid (aCSF) medium (NaCl 147 mM, KCl 2.7 mM, CaCl2 1.2 mM, MgCl2 0.85 mM) at room temperature. The dialysis system was then equilibrated at 20° C. at a perfusion rate of 1 μl/min with a Carnegie pump (CMA100). All catheters (FEP tubing, internal volume of 1.2 μl/10 cm, and tubing adaptors) used for microdialysis were treated in the same conditions.
The probes duly prepared were inserted into the guide cannula and the CMA120 Swivel assembly secured to the animal using a plastic collar. Flow through the dialysis probe with aCSF was maintained at a rate of 1 μl/min during the whole experimentation. The first four fractions (corresponding to 2 hours) were discarded to avoid the effects of parenchymal disturbance and to ensure that an approximate steady-state level was reached. Fractions were then collected over a period of 8.5 h during which time the animals remained quiet. The dialysates were automatically collected with an autosampler (microfraction collector CMA 140, Carnegie Medicin) and stored at −80° C. until analysis. […] Perfusion was then maintained for 7 hours with aCSF. The dialysates (30 μl) were collected into 300 μl vials, transferred into dry ice and then kept frozen (−80° C.) until analysis. Frozen samples were shipped to a partner for analysis. At the end of the microdialysis study, a PBS with colored ink was perfused through the probe in order to visualize the dialyzed area.
Catecholamine assay: Concentrations of dopamine, DOPAC, HVA, 5-HIAA, 5-HT, and norepinephrin were determined for each sample by HPLC coupled with electrochemical detection. […]

For `CN(C)CCCC1(c2ccc(F)cc2)OCc2cc(C#N)ccc21` (centres unmarked) [Citalopram, citalopram, reference compound], the “5-HT in dialysate, MEAN” value (T0-T30 min) was 85.23 % of respective basal, the “5-HT in dialysate, MEAN” value (T30-T1 h) was 218.92 % of respective basal and the “5-HT in dialysate, individual animals” value (T30-T1 h) was 203.59 % of respective basal and 157.98 % of respective basal and 133.67 % of respective basal and 139.45 % of respective basal and 219.64 % of respective basal and 344.10 % of respective basal and 285.92 % of respective basal and 267.00 % of respective basal. The “5-HT in dialysate, MEAN” value (T1 h 30-T2 h) was 170.67 % of respective basal, the “5-HT in dialysate, individual animals” value (T1 h 30-T2 h) was 103.23 % of respective basal and 101.96 % of respective basal and 153.81 % of respective basal and 83.91 % of respective basal and 207.6 % of respective basal and 351.79 % of respective basal and 164.94 % of respective basal and 198.14 % of respective basal and the “5-HT in dialysate, MEAN” value (T1 h-T1 h 30) was 171.48 % of respective basal. For the same compound, the “5-HT in dialysate, individual animals” value (T1 h-T1 h 30) was 162.56 % of respective basal and 151.29 % of respective basal and 167.46 % of respective basal and 128.56 % of respective basal and 232.85 % of respective basal and 235.03 % of respective basal and 158.66 % of respective basal and 135.42 % of respective basal, the “5-HT in dialysate, MEAN” value (T2 h 30-T3 h) was 116.57 % of respective basal and the “5-HT in dialysate, individual animals” value (T2 h 30-T3 h) was 109.55 % of respective basal and 38.11 % of respective basal and 79.68 % of respective basal and 57.89 % of respective basal and 152.73 % of respective basal and 299.86 % of respective basal and 89.94 % of respective basal and 104.76 % of respective basal. The “5-HT in dialysate, MEAN” value (T2 h-T2 h 30) was 138.70 % of respective basal, the “5-HT in dialysate, individual animals” value (T2 h-T2 h 30) was 97.34 % of respective basal and 43.80 % of respective basal and 100.91 % of respective basal and 83.82 % of respective basal and 153.02 % of respective basal and 315.50 % of respective basal and 215.03 % of respective basal and 100.89 % of respective basal and the “5-HT in dialysate, MEAN” value (T3 h 30-T4 h) was 126.49 % of respective basal. The “5-HT in dialysate, individual animals” value (T3 h 30-T4 h) was 93.89 % of respective basal and 20.30 % of respective basal and 84.02 % of respective basal and 59.96 % of respective basal and 97.06 % of respective basal and 476.98 % of respective basal and 67.07 % of respective basal and 112.62 % of respective basal, the “5-HT in dialysate, MEAN” value (T3 h-T3 h 30) was 136.30 % of respective basal and the “5-HT in dialysate, individual animals” value (T3 h-T3 h 30) was 88.23 % of respective basal and 47.91 % of respective basal and 85.22 % of respective basal and 48.54 % of respective basal and 108.35 % of respective basal and 516.29 % of respective basal and 70.00 % of respective basal and 125.89 % of respective basal. For the same compound, the “5-HT in dialysate, MEAN” value (T4 h 30-T5 h) was 90.86 % of respective basal, the “5-HT in dialysate, individual animals” value (T4 h 30-T5 h) was 89.09 % of respective basal and 13.90 % of respective basal and 77.20 % of respective basal and 44.62 % of respective basal and 120.70 % of respective basal and 212.73 % of respective basal and 55.57 % of respective basal and 113.09 % of respective basal and the “5-HT in dialysate, MEAN” value (T4 h-T4 h 30) was 97.87 % of respective basal. The “5-HT in dialysate, individual animals” value (T4 h-T4 h 30) was 128.06 % of respective basal and 25.07 % of respective basal and 73.75 % of respective basal and 50.85 % of respective basal and 85.54 % of respective basal and 261.90 % of respective basal and 76.87 % of respective basal and 80.93 % of respective basal, the “5-HT in dialysate, MEAN” value (T5 h 30-T6 h) was 75.87 % of respective basal and the “5-HT in dialysate, individual animals” value (T5 h 30-T6 h) was 78.66 % of respective basal and 7.95 % of respective basal and 69.20 % of respective basal and 42.04 % of respective basal and 72.98 % of respective basal and 142.95 % of respective basal and 74.38 % of respective basal and 118.79 % of respective basal. For the same compound, the “5-HT in dialysate, MEAN” value (T5 h-T5 h 30) was 92.05 % of respective basal, the “5-HT in dialysate, individual animals” value (T5 h-T5 h 30) was 77.74 % of respective basal and 11.81 % of respective basal and 73.01 % of respective basal and 50.89 % of respective basal and 87.24 % of respective basal and 227.76 % of respective basal and 54.20 % of respective basal and 153.73 % of respective basal and the “5-HT in dialysate, MEAN” value (T6 h 30-T7 h) was 76.63 % of respective basal. The “5-HT in dialysate, individual animals” value (T6 h 30-T7 h) was 87.93 % of respective basal and 11.23 % of respective basal and 60.60 % of respective basal and 41.05 % of respective basal, the “5-HT in dialysate, MEAN” value (T6 h-T6 h 30) was 79.25 % of respective basal and the “5-HT in dialysate, individual animals” value (T6 h-T6 h 30) was 70.23 % of respective basal and 12.51 % of respective basal and 74.22 % of respective basal and 42.28 % of respective basal and 81.01 % of respective basal and 173.04 % of respective basal and 63.01 % of respective basal and 117.68 % of respective basal. The “5-HT in dialysate, MEAN” value (T-30 min-T0 (pre-dose)) was 87.59 % of respective basal, the “5-HT in dialysate, MEAN” value (T-1 h 30-T-1 h (pre-dose)) was 108.45 % of respective basal and the “5-HT in dialysate, MEAN” value (T-1 h-T-30 min (pre-dose)) was 105.84 % of respective basal. For the same compound, the “5-HT concentrations in prefrontal cortex, significant increase” value (citalopram 10 mg/kg IP, from 1 h to 2 h) was 219% and the “5-HT release, maximum increase observed” value (citalopram 10 mg/kg, at 1 h) was 218%.
